In patent US20040024024A1, “Aromatic sulfone hydroxamates and their use as protease inhibitors” (priority 2001, published 2004):

Legend:
Human recombinant MMP-2 = biological target: T1, Human recombinant MMP-2 (Homo sapiens, UniProt P08253); assay: In vitro MMP inhibition, Ki determination (fluorogenic substrate II); assay type: biochemical
T1 construct: made in house; host or cells: MMP-2-transfected p2AHT2 cells
T1 sequence (P08253 110-660): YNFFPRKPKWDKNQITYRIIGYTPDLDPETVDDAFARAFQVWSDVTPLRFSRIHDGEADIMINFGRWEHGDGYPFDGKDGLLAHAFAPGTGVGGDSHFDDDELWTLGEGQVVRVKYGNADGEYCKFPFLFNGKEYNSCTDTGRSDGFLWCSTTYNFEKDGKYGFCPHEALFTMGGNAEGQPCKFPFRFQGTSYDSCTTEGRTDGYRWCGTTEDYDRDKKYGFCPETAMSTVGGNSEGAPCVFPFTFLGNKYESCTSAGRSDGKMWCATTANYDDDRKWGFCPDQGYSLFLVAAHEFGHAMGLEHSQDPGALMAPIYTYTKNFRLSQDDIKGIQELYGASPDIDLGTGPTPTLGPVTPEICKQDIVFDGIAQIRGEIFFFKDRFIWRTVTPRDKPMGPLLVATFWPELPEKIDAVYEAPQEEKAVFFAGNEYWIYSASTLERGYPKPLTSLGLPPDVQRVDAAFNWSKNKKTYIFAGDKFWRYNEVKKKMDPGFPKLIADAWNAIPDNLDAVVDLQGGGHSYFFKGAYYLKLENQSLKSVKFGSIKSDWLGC
Description: Several hydroxamates and salts thereof were analyzed in in vitro assays to determine their ability to inhibit the MMP cleavage of peptide substrates. Inhibition (Ki) and IC50 constants were calculated from the assayed hydroxamate-MMP interactions.
Human recombinant MMP-1, MMP-2, MMP-9, MMP-13, and MMP-14 were used in this assay. All enzymes were prepared in Assignee's laboratories following usual laboratory procedures. Protocols for the preparation and use of these enzymes are available in the scientific literature. See, e.g., Enzyme Nomenclature (Academic Press, San Diego, Calif., 1992) (and the citations therein). See also, Frije et al., J. Biol. Chem., 26(24), 16766-73 (1994).
The MMP-2 proenzyme was purified by gelatin Sepharose chromatography from MMP-2-transfected p2AHT2 cells provided by Dr. Gregory Goldberg of Washington University (St. Louis, Mo.).
All MMPs were activated using 4-aminophenylmercuric acetate (“APMA”, Sigma Chemical, St. Louis, Mo.) or trypsin. MMP-9 also was activated using human recombinant MMP-3 (purified in Assignee's laboratory following standard cloning and purification techniques).
Two fluorogenic, methoxycoumarin-containing polypeptide substrates were used in the MMP inhibition assays:
MCA-ArgProLeuGlyLeuDpaAlaArgGluArgNH2 (II)
Here, “Dpa” is 3-(2,4-dinitrophenyl)-L-2,3-diaminopropionyl group, and “MCA” is 7-methoxycoumarin-4-yl acetyl. Substrate (I) was purchased from Baychem (Redwood City, Calif.), and substrate II was prepared Assignee's laboratory. Substrate I was used in the IC50 determination assays, while substrate II was used in the Ki determination assays. In the absence of MMP inhibitory activity, either substrate is cleaved at the Gly-Leu peptide bond. This cleavage separates the highly fluorogenic peptide from the 2,4-dinitrophenyl quencher, thus resulting in increase of fluorescent intensity.
The stock solutions of the assayed hydroxamates (or salts thereof) were prepared in 1% dimethyl sulfoxide (DMSO). These stock solutions were diluted in Buffer A (100 mM Tris-HCl, 100 mM NaCl, 10 mM CaCl2, 0.05% polyoxyethylene 23 lauryl ether, pH 7.5) to obtain solutions with different hydroxamate concentrations, i.e., assay solutions with different concentrations of the assayed MMP inhibitory compound. The experiment controls contained the same amount of Buffer A/DMSO as the assayed sample, but contained no hydroxamate (or salt thereof).
The assays from which the Ki determinations were made were performed as follows. The assayed hydroxamate samples were incubated in separate wells of untreated white polystyrene plates (Nunc Nalgene International, Rochester, N.Y.), and analyzed on a Tecan SpectraFlour Plus plate reader. The excitation wavelength was 330 nm, and the emission wavelength—420 nm. All samples (assayed hydroxamates and controls) were incubated in separate plate wells at room temperature for 1 hr in the presence of 4 μM of MMP substrate (II). In the absence of MMP inhibitory activity, substrate II was cleaved at the Gly-Leu bond resulting in an increase of relative fluorescence. Inhibition was observed as a reduced rate of this increase in relative fluorescence. The various hydroxamates were analyzed using a single low enzyme concentration with a single substrate concentration fixed at or below the Km. This protocol is a modification of method by Knight et al., FEBS Lett., 296(3), 263-266 (1992). Apparent inhibitory constants were determined by non-linear regression of reaction velocity as a function of inhibitor and enzyme concentration using Morrison's equation, as described by Kuzmic, Anal. Biochem. 286, 45-50 (2000). […] Since the substrate concentration was chosen to be at or below the Km, the apparent Ki's from this analysis were reported as Ki's without correction for the influence of substrate.

Human recombinant MMP-9 = biological target: T2, Human recombinant MMP-9 (Homo sapiens, UniProt P14780); assay: as above; assay type: biochemical
T2 construct: made in house; host or cells: MMP-9-transfected HT1080 cells (spent media)
T2 sequence (P14780 107-707 limits assumed): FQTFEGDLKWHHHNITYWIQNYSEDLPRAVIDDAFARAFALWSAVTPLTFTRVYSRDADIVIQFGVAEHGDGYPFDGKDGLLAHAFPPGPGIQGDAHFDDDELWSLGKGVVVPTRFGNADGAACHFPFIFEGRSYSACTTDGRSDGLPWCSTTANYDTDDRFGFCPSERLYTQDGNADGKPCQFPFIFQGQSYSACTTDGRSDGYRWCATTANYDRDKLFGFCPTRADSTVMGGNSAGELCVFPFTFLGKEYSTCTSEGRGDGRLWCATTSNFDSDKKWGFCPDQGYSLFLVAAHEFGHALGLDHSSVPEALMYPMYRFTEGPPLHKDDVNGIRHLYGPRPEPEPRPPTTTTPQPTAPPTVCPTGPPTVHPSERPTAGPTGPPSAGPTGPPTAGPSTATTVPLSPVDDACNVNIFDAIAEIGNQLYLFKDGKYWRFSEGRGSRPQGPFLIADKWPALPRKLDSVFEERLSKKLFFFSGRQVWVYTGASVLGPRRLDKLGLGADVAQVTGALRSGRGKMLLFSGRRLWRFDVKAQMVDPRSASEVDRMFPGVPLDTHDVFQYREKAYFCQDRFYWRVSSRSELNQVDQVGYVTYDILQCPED
Summary of the method: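 MMP-9 proenzyme purified from transfected HT1080 cell media, activated with APMA, trypsin or recombinant MMP-3; hydroxamates diluted in pH 7.5 Tris/NaCl/CaCl2 buffer. Cleavage of 4 μM MCA/Dpa substrate II followed by fluorescence (ex 330/em 420 nm), 1 h at room temperature. Ki from Morrison-equation fit, substrate at/below Km, uncorrected.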

[1] = substrate (II) 4 μM, 1 hr room temperature, apparent Ki, values in parenthesis

| Structure (SMILES) | Ki (Human recombinant MMP-2; value in parenthesis) | Ki (Human recombinant MMP-9; value in parenthesis) | also measured |
| --- | --- | --- | --- |
| COCCN1CCC(C(=O)NO)(S(=O)(=O)c2ccc(OCCc3cccc(-c4ccccc4)c3)cc2)CC1 [Example 45] | – | – | Ki (Human recombinant MMP-2; [1]): 225 nM; Ki (Human recombinant MMP-9; [1]): 499 nM |
| COCCN1CCC(C(=O)NO)(S(=O)(=O)c2ccc(OCCCc3cccc(-c4ccc(Cl)cc4)c3)cc2)CC1 [Example 50] | – | – | Ki (Human recombinant MMP-2; [1]): 1130 nM; Ki (Human recombinant MMP-9; [1]): 304 nM |
| COCCN1CCC(C(=O)NO)(S(=O)(=O)c2ccc(OCCCc3cccc(-c4ccc(F)c(F)c4)c3)cc2)CC1 [Example 52] | – | – | Ki (Human recombinant MMP-2; [1]): 543 nM; Ki (Human recombinant MMP-9; [1]): 617 nM |
| O=C(NO)C1(S(=O)(=O)c2ccc(OCCCc3nc(-c4ccc(OC(F)(F)F)cc4)no3)cc2)CCN(Cc2ccccc2)CC1 [Example 93] | 676 nM | 1120 nM | – |
| CC(C)c1ccc(-c2cccc(CCOc3ccc(S(=O)(=O)C4(C(=O)NO)CCOCC4)cc3)c2)cc1 [Example 109] | 8100 nM | > 10000 nM | – |
| O=C(NO)C1(S(=O)(=O)c2ccc(OCCc3cccc(-c4cc(F)cc(F)c4)c3)cc2)CCOCC1 [Example 110] | 112 nM | 4340 nM | – |
| O=C(NO)C1(S(=O)(=O)c2ccc(OCCc3cccc(-c4cccc(F)c4)c3)cc2)CCOCC1 [Example 111] | 769 nM | 2680 nM | – |
| O=C(NO)C1(S(=O)(=O)c2ccc(OCCc3cccc(-c4ccc(OC(F)(F)F)cc4)c3)cc2)CCOCC1 [Example 112] | 3970 nM | 8850 nM | – |
| O=C(NO)C1(S(=O)(=O)c2ccc(OCCc3cccc(-c4ccccc4Cl)c3)cc2)CCOCC1 [Example 114] | 1500 nM | 4870 nM | – |
| Cc1ccccc1-c1cccc(CCOc2ccc(S(=O)(=O)C3(C(=O)NO)CCOCC3)cc2)c1 [Example 116] | 1250 nM | 5550 nM | – |
| Cc1ccc(-c2cccc(CCOc3ccc(S(=O)(=O)C4(C(=O)NO)CCOCC4)cc3)c2)cc1C [Example 117] | 3640 nM | 9910 nM | – |
| Cc1cc(-c2cccc(CCOc3ccc(S(=O)(=O)C4(C(=O)NO)CCOCC4)cc3)c2)ccc1Cl [Example 118] | 2650 nM | > 10000 nM | – |
| COc1ccc(-c2cccc(CCOc3ccc(S(=O)(=O)C4(C(=O)NO)CCOCC4)cc3)c2)cc1C [Example 119] | 1680 nM | 3950 nM | – |
| O=C(NO)C1(S(=O)(=O)c2ccc(OCCc3cccc(-c4ccc(Cl)c(Cl)c4)c3)cc2)CCOCC1 [Example 121] | 4620 nM | > 10000 nM | – |
| O=C(NO)C1(S(=O)(=O)c2ccc(OCCc3cccc(-c4ccc(Cl)cc4Cl)c3)cc2)CCOCC1 [Example 124] | 5730 nM | > 10000 nM | – |
| O=C(NO)C1(S(=O)(=O)c2ccc(OCCc3cccc(-c4cc(Cl)cc(Cl)c4)c3)cc2)CCOCC1 [Example 126] | 6360 nM | > 10000 nM | – |
| COCCN1CCC(C(=O)NO)(S(=O)(=O)c2ccc(OCCCc3nc(-c4ccc(CC(C)C)cc4C)no3)cc2)CC1 [Example 128] | 1130 nM | 3550 nM | – |
| NC(=O)c1cccc(-c2noc(CCCOc3ccc(S(=O)(=O)C4(C(=O)NO)CCN(C5CC5)CC4)cc3)n2)c1 [Example 129] | 50 nM | 110 nM | – |
| COCCN1CCC(C(=O)NO)(S(=O)(=O)c2ccc(OCCCc3nc(-c4ccc(Br)cc4C)no3)cc2)CC1 [Example 135] | 58.5 nM | 457 nM | – |

| Structure (SMILES) | Ki (Human recombinant MMP-2; value in parenthesis) | Ki (Human recombinant MMP-9; value in parenthesis) | also measured |
| --- | --- | --- | --- |
| O=C(NO)C1(S(=O)(=O)c2ccc(OCCCc3nc(C4CCCCC4)no3)cc2)CCN(C2CC2)CC1 [Example 137] | 36.6 nM | 604 nM | – |
| Cc1cc(-c2cccc(CCCOc3ccc(S(=O)(=O)C4(C(=O)NO)CCOCC4)cc3)c2)ccc1Cl [Example 166] | 8090 nM | 8690 nM | – |
| Cc1cc(-c2cccc(CCCOc3ccc(S(=O)(=O)C4(C(=O)NO)CCOCC4)cc3)c2)ccc1F [Example 168] | 5500 nM | 6500 nM | – |
| O=C(NO)C1(S(=O)(=O)c2ccc(OCCCc3cccc(-c4ccc(Cl)c(Cl)c4)c3)cc2)CCOCC1 [Example 169] | 5360 nM | 6500 nM | – |
| O=C(NO)C1(S(=O)(=O)c2ccc(OCCCc3cccc(-c4ccc(F)c(F)c4)c3)cc2)CCOCC1 [Example 170] | 1410 nM | 1500 nM | – |
| O=C(NO)C1(S(=O)(=O)c2ccc(OCCCc3cccc(-c4ccc(Cl)cc4Cl)c3)cc2)CCOCC1 [Example 171] | 3190 nM | 6600 nM | – |
| O=C(NO)C1(S(=O)(=O)c2ccc(OCCCc3cccc(-c4cc(Cl)cc(Cl)c4)c3)cc2)CCOCC1 [Example 172] | > 10000 nM | 9440 nM | – |
| CCCCc1ccc(-c2noc(CCCOc3ccc(S(=O)(=O)C4(C(=O)NO)CCOCC4)cc3)n2)c(C)c1 [Example 183] | 643 nM | 2510 nM | – |
| COCCN1CCC(C(=O)NO)(S(=O)(=O)c2ccc(OCCCc3nc(-c4ccc(C5(c6ccccc6)CC5)cc4)no3)cc2)CC1 [Example 185] | 116 nM | 220 nM | – |
| COCCN1CCC(C(=O)NO)(S(=O)(=O)c2ccc(OCCCc3nc(-c4cccc5ccccc45)no3)cc2)CC1 [Example 199] | 228 nM | 59.5 nM | – |
| O=C(NO)C1(S(=O)(=O)c2ccc(OCCCc3ccc(F)c(-c4ccccc4)c3)cc2)CCOCC1 [Example 504] | – | – | Ki (Human recombinant MMP-2; value in parentheses): 434 nM; Ki (Human recombinant MMP-9; value in parentheses): 2310 nM |
| CCCC(=O)CCCOc1ccc(S(=O)(=O)C2(C(=O)NO)CCOCC2)cc1 [Example 505] | – | – | Ki (Human recombinant MMP-2; value in parentheses): 2.56 nM; Ki (Human recombinant MMP-9; value in parentheses): 10.2 nM |
| CCCCC(=O)CCCOc1ccc(S(=O)(=O)C2(C(=O)NO)CCOCC2)cc1 [Example 506] | – | – | Ki (Human recombinant MMP-2; value in parentheses): 1.92 nM; Ki (Human recombinant MMP-9; value in parentheses): 11.4 nM |
| CCCCCCCOc1ccc(S(=O)(=O)C2(C(=O)NO)CCOCC2)cc1 [Example 507] | – | – | Ki (Human recombinant MMP-2; value in parentheses): 0.84 nM; Ki (Human recombinant MMP-9; value in parentheses): 0.44 nM |
| COCCN1CCC(C(=O)NO)(S(=O)(=O)c2ccc(OCCCc3cncc(-c4ccccc4)c3)cc2)CC1 [Example 508] | – | – | Ki (Human recombinant MMP-2; value in parentheses): 22.8 nM; Ki (Human recombinant MMP-9; value in parentheses): 160 nM |
| COCCN1CCC(C(=O)NO)(S(=O)(=O)c2ccc(OCCCc3cccc(-c4cccnc4)c3)cc2)CC1 [Example 509] | – | – | Ki (Human recombinant MMP-2; value in parentheses): 89.3 nM; Ki (Human recombinant MMP-9; value in parentheses): 50.9 nM |
| COCCN1CCC(C(=O)NO)(S(=O)(=O)c2ccc(OCCCc3cccc(-c4cccs4)c3)cc2)CC1 [Example 510] | – | – | Ki (Human recombinant MMP-2; value in parentheses): 7.85 nM; Ki (Human recombinant MMP-9; value in parentheses): 39.8 nM |
| COCCN1CCC(C(=O)NO)(S(=O)(=O)c2ccc(OCCCc3cccc(-c4cccc(F)c4)c3)cc2)CC1 [Example 511] | – | – | Ki (Human recombinant MMP-2; value in parentheses): 526 nM; Ki (Human recombinant MMP-9; value in parentheses): 38.5 nM |
| COCCN1CCC(C(=O)NO)(S(=O)(=O)c2ccc(OCCCc3cccc(-c4ccccc4F)c3)cc2)CC1 [Example 512] | – | – | Ki (Human recombinant MMP-2; value in parentheses): 758 nM; Ki (Human recombinant MMP-9; value in parentheses): 25.7 nM |
